Source: patent publication US11000033B2, “Ketone or oxime compound, and herbicide” (NISSAN CHEMICAL CORPORATION, priority 2014, dated 2021)

How the values were obtained:
Type in all cases: in vivo
[1] = test system: rapeseed; assay: Test Example 4: effect on crop by soil treatment (symbol g); settings: 320 g/ha
Summary of the method: (§1)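 Diluvial soil (sterilized) in boxes; seeds placed spot-wise alongside weed species; ~1.5 cm covering soil. Greenhouse, 25–30° C.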

[2] = test system: Echinochloa crus-galli var. crus-galli; assay: Test Example 4: herbicidal effect by soil treatment (symbol H); settings: 320 g/ha
Summary of the method: (§2)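 Seeds were sown in sterilized diluvial soil, covered with about 1.5 cm of soil, and the soil surface was sprayed with a water-diluted emulsion of the compound at a predetermined rate. Plants grew in a greenhouse at 25° C. to 30° C.; effects were scored visually 3 weeks after application.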

[3] = test system: Cyperus difformis; assay: Test Example 3: herbicidal effect by foliage application, Wagner pot (symbol E); settings: application herbicide amount 320 g/ha
Summary of the method: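 Alluvial soil was flooded to a depth of 0.1–0.5 cm, seeded with the weeds and rice, and kept in a greenhouse at 25–30 °C. After 14 days of growth, the foliage received a small-sprayer application of emulsion diluted to the intended rate; injury was rated at 3 weeks.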

[4] = test system: rice; assay: Test Example 4: effect on crop by soil treatment (symbol b); settings: 320 g/ha
Summary of the method: as §1

[5] = test system: Scirpus juncoides; assay: Test Example 1: herbicidal activity, application before weed generation in submerged conditions (symbol B); settings: application herbicide amount 320 g/ha
Summary of the method: (§3)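 Pre-emergence, paddy conditions: emulsifiable formulation diluted in water, dosed onto floodwater (4 cm depth) on sowing day. Alluvial soil; weeds sown mixed; rice transplanted at 2.5-leaf stage. Greenhouse 25–30 °C, 3 wk. Score 0–5 (5 = ≥90% kill, 0 = ≤5%).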

[6] = test system: Setaria viridis; assay: Test Example 5: herbicidal effect by foliage application, plastic box (symbol G); settings: 320 g/ha, 3 weeks after application
Summary of the method: (§4)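 Herbicide, formulated as an emulsion and diluted in water, is sprayed onto the aerial parts of 14-day seedlings. These were grown at 25° C. to 30° C. in sterilized diluvial soil; effects are graded after 3 weeks.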

[7] = test system: Echinochloa oryzacola Vasing.; assay: Test Example 1: herbicidal activity, application before weed generation in submerged conditions (symbol A); settings: application herbicide amount 320 g/ha
Summary of the method: as §3

[8] = test system: corn; assay: Test Example 4: effect on crop by soil treatment (symbol c); settings: 320 g/ha
Summary of the method: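 Plants are raised in a greenhouse (25° C. to 30° C.) from spot-sown seed, which sits under about 1.5 cm of sterilized diluvial soil in a box shared with weed species.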

[9] = test system: rapeseed; assay: Test Example 5: effect on crop by foliage application, plastic box (symbol g); settings: 320 g/ha, 3 weeks after application
Summary of the method: (§5)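 Crop seed is sown alongside grass and broadleaf weed species in spots in sterilized diluvial soil, then covered to a depth of about 1.5 cm. Plants grow in a greenhouse kept at 25° C. to 30° C.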

[10] = test system: Echinochloa crus-galli var. crus-galli; assay: Test Example 5: herbicidal effect by foliage application, plastic box (symbol H); settings: 320 g/ha, 3 weeks after application
Summary of the method: as §4

[11] = test system: Amaranthus retroflexus; assay: Test Example 5: herbicidal effect by foliage application, plastic box (symbol N); settings: 320 g/ha, 3 weeks after application
Summary of the method: as §4

[12] = test system: Amaranthus retroflexus; assay: Test Example 4: herbicidal effect by soil treatment (symbol N); settings: 320 g/ha
Summary of the method: as §2

[13] = test system: directly sowed rice plant; assay: Test Example 3: effect on crop by foliage application, Wagner pot (symbol b); settings: application herbicide amount 320 g/ha
Summary of the method: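 Greenhouse culture at 25–30 °C of seeded rice, Cyperus difformis, Leptochloa chinensis and Echinochloa crus-galli var. crus-galli, in alluvial soil held under 0.1–0.5 cm of water in a Wagner pot.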

[14] = test system: beet; assay: Test Example 5: effect on crop by foliage application, plastic box (symbol f); settings: 320 g/ha, 3 weeks after application
Summary of the method: as §5

[15] = test system: Stellaria media; assay: Test Example 4: herbicidal effect by soil treatment (symbol P); settings: 320 g/ha
Summary of the method: as §2

[16] = test system: Monochoria vaginalis; assay: Test Example 1: herbicidal activity, application before weed generation in submerged conditions (symbol C); settings: application herbicide amount 320 g/ha
Summary of the method: as §3

Row | SMILES | g: rapeseed, effect grade on crop [1] | H: Echinochloa crus-galli var. crus-galli, herbicidal effect grade [2] | herbicidal effect on E, grade 0-5 [3] | b: directly sowed rice plant, effect grade on crop [4] | Herbicidal effect grade, B: Scirpus juncoides [5] | G: Setaria viridis, herbicidal effect (criteria 0-5) [6] | Herbicidal effect grade, A: Echinochloa oryzacola Vasing. [7] | c: corn, effect grade on crop [8] | g: rapeseed, effect on crop (criteria 0-5) [9] | H: Echinochloa crus-galli var. crus-galli, herbicidal effect (criteria 0-5) [10] | N: Amaranthus retroflexus, herbicidal effect (criteria 0-5) [11] | N: Amaranthus retroflexus, herbicidal effect grade [12] | effect on crop b (directly sowed rice plant), grade 0-5 [13] | f: beet, effect on crop (criteria 0-5) [14] | P: Stellaria media, herbicidal effect grade [15] | Herbicidal effect grade, C: Monochoria vaginalis [16]
1 | CC(CC1CC(O)=C(c2c(C)cc(C)cc2C)C1=O)=NOCC#N (stereo not drawn) [1-102] | 0 (Herbicidal ratio of 5% or lower (almost no effect)) | 5 (Herbicidal ratio of 90% or more (almost completely withered)) | 5 (Herbicidal ratio of 90% or more (almost completely withered)) | 5 (Herbicidal ratio of 90% or more (almost completely withered)) | 3 (Herbicidal ratio of 40% or higher and lower than 70%) | 5 (Herbicidal ratio of 90% or more (almost completely withered)) | 5 (Herbicidal ratio of 90% or more (almost completely withered)) | 0 (Herbicidal ratio of 5% or lower (almost no effect)) | 2 (Herbicidal ratio of 20% or higher and lower than 40%) | 5 (Herbicidal ratio of 90% or more (almost completely withered)) | 0 (Herbicidal ratio of 5% or lower (almost no effect)) | 0 (Herbicidal ratio of 5% or lower (almost no effect)) | 5 (Herbicidal ratio of 90% or more (almost completely withered)) | 0 (Herbicidal ratio of 5% or lower (almost no effect)) | 0 (Herbicidal ratio of 5% or lower (almost no effect)) | 
2 | CC(CC1CC(O)=C(c2c(C)cc(C)cc2C)C1=O)=NOC1CCCC1 (stereo not drawn) [1-106] | 3 (Herbicidal ratio of 40% or higher and lower than 70%) | 5 (Herbicidal ratio of 90% or more (almost completely withered)) | 5 (Herbicidal ratio of 90% or more (almost completely withered)) | 5 (Herbicidal ratio of 90% or more (almost completely withered)) | 3 (Herbicidal ratio of 40% or higher and lower than 70%) | 5 (Herbicidal ratio of 90% or more (almost completely withered)) | 5 (Herbicidal ratio of 90% or more (almost completely withered)) | 1 (Herbicidal ratio of 5% or higher and lower than 20%) | 3 (Herbicidal ratio of 40% or higher and lower than 70%) | 5 (Herbicidal ratio of 90% or more (almost completely withered)) | 5 (Herbicidal ratio of 90% or more (almost completely withered)) | 0 (Herbicidal ratio of 5% or lower (almost no effect)) | 5 (Herbicidal ratio of 90% or more (almost completely withered)) | 0 (Herbicidal ratio of 5% or lower (almost no effect)) | 0 (Herbicidal ratio of 5% or lower (almost no effect)) | 
3 | CC(CC1CC(O)=C(c2c(C)cc(C)cc2C)C1=O)=NOCc1ccc(C(F)(F)F)cc1 (stereo not drawn) [1-138] | 0 (Herbicidal ratio of 5% or lower (almost no effect)) | 5 (Herbicidal ratio of 90% or more (almost completely withered)) |  | 5 (Herbicidal ratio of 90% or more (almost completely withered)) | 5 (Herbicidal ratio of 90% or more (almost completely withered)) | 5 (Herbicidal ratio of 90% or more (almost completely withered)) | 5 (Herbicidal ratio of 90% or more (almost completely withered)) | 0 (Herbicidal ratio of 5% or lower (almost no effect)) | 4 (Herbicidal ratio of 70% or higher and lower than 90%) | 5 (Herbicidal ratio of 90% or more (almost completely withered)) | 0 (Herbicidal ratio of 5% or lower (almost no effect)) | 0 (Herbicidal ratio of 5% or lower (almost no effect)) | 5 (Herbicidal ratio of 90% or more (almost completely withered)) | 0 (Herbicidal ratio of 5% or lower (almost no effect)) | 0 (Herbicidal ratio of 5% or lower (almost no effect)) | 5 (Herbicidal ratio of 90% or more (almost completely withered))
4 | CCC(Oc1ccc2ncc(Br)cc2c1)C(=O)OC1=C(c2c(C)cc(C)cc2C)C(=O)C(CC(C)=NOC)C1 (stereo not drawn) [1-140] | 4 (Herbicidal ratio of 70% or higher and lower than 90%) | 5 (Herbicidal ratio of 90% or more (almost completely withered)) |  | 5 (Herbicidal ratio of 90% or more (almost completely withered)) | 5 (Herbicidal ratio of 90% or more (almost completely withered)) | 5 (Herbicidal ratio of 90% or more (almost completely withered)) | 5 (Herbicidal ratio of 90% or more (almost completely withered)) | 4 (Herbicidal ratio of 70% or higher and lower than 90%) | 5 (Herbicidal ratio of 90% or more (almost completely withered)) | 5 (Herbicidal ratio of 90% or more (almost completely withered)) | 3 (Herbicidal ratio of 40% or higher and lower than 70%) | 5 (Herbicidal ratio of 90% or more (almost completely withered)) | 5 (Herbicidal ratio of 90% or more (almost completely withered)) | 3 (Herbicidal ratio of 40% or higher and lower than 70%) | 0 (Herbicidal ratio of 5% or lower (almost no effect)) | 1 (Herbicidal ratio of 5% or higher and lower than 20%)
